Experimental findings from ChEMBL document CHEMBL1132604, “Hypoxia-selective nitrobenzyloxycarbonyl derivatives of 1,2-bis(methylsulfonyl)-1-(2-chloroethyl)hydrazines” (1999) are described below.

Molecules are shown by their SMILES.

Assay type in all cases: functional
In test [1] the test system is Mus musculus. Put plainly: Surviving fraction of compound on BALB/c mice bearing well established intradermal EMT6 solid tumors was measured by intraperitoneal injection on treatment with drug.
In test [2] the test system is Mus musculus. Nature of the test: Surviving fraction of compound on BALB/c mice bearing well established intradermal EMT6 solid tumors was measured by intraperitoneal injection on treatment with X-ray.
The test system of test [3] is Mus musculus. Put plainly: Surviving fraction of compound on BALB/c mice bearing well established intradermal EMT6 solid tumors was measured by intraperitoneal injection on treatment with drug and X-ray.
Test [4] concerns Mus musculus. Put plainly: Surviving fraction of compound on BALB/c mice bearing well established intradermal EMT6 solid tumors was measured by intraperitoneal injection without any treatment.
Test [5] relates to Mus musculus. Put plainly: Surviving fraction of compound on BALB/c mice bearing well established intradermal EMT6 solid tumors was measured by intraperitoneal injection on treatment with X-ray alone.
Test [6] deals with Mus musculus. Nature of the test: Surviving fraction of compound on BALB/c mice bearing well established intradermal EMT6 solid tumors was measured by intraperitoneal injection on treatment with drug alone.

As to `CS(=O)(=O)N(CCCl)N(C(=O)OCc1ccc([N+](=O)[O-])cc1)S(C)(=O)=O`, the Surviving fraction in the test with Mus musculus [1] is recorded as 0.841; in the test on Mus musculus [2] it was 0.043; in the test on Mus musculus [3], 0.013; in the test on Mus musculus [4] it was 1.
For `COc1cc(COC(=O)N(N(CCCl)S(C)(=O)=O)S(C)(=O)=O)c([N+](=O)[O-])cc1OC`, the Surviving fraction was 0.043 in the test on Mus musculus [5], 0.856 in the test with Mus musculus [6], 0.024 in the test on Mus musculus [3] and 1 in the test with Mus musculus [4].
